In one data set the target is T1, PpKAI2L-K (Physcomitrium patens, UniProt A9S299).
T1 sequence (A9S299 1-270): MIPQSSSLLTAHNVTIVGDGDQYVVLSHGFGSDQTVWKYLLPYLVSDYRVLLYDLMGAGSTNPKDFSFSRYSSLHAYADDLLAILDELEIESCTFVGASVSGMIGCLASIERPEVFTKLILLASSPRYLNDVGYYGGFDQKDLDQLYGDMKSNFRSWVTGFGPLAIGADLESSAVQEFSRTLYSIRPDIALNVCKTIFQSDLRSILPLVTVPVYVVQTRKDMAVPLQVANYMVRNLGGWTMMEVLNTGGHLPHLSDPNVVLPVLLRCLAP
The following applies: apparent Kd.

The target in another data set is AtD14 (Arabidopsis thaliana, UniProt Q9SQR3). The experiment in a line: biochemical.
The target of the next data set is T2, PpKAI2L-D (Physcomitrium patens, UniProt A9SSF6).
T2 sequence (A9SSF6 1-271): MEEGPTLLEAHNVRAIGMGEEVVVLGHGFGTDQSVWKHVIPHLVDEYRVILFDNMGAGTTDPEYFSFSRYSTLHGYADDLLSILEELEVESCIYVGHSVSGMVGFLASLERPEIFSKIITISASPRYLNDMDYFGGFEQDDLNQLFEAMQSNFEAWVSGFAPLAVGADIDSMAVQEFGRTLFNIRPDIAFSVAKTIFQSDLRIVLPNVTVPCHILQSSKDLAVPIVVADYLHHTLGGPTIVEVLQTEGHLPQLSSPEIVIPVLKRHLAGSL
The following applies: apparent Kd.

Another data set has as its target T3, PpKAI2L-E (Physcomitrium patens, UniProt A9ST85).
T3 sequence (A9ST85 1-270): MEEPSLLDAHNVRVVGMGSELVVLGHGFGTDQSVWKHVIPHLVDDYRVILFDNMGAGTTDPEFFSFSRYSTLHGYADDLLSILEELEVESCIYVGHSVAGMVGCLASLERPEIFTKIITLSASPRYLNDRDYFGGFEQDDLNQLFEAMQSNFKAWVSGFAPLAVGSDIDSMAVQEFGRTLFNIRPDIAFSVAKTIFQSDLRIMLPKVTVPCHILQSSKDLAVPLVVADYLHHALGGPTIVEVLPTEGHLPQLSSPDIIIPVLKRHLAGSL
The following applies: apparent Kd.

In a further data set the target is T4, AtKAI2 (Arabidopsis thaliana, UniProt Q9SZU7).
T4 sequence (Q9SZU7 1-270): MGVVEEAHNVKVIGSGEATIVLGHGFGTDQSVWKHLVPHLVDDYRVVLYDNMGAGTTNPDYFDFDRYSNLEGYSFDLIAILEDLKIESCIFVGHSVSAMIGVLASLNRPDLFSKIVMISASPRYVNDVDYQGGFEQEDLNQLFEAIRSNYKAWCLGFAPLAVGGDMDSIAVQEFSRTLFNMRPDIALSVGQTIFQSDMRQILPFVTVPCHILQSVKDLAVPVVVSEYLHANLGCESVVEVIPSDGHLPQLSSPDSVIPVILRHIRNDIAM
The experiment in a line: biochemical.

Substrate in the data set “purified protein”: CC(=O)Oc1ccc([N+](=O)[O-])cc1
Briefly: purified protein.

Sequence of AtD14 (Q9SQR3 whole entry): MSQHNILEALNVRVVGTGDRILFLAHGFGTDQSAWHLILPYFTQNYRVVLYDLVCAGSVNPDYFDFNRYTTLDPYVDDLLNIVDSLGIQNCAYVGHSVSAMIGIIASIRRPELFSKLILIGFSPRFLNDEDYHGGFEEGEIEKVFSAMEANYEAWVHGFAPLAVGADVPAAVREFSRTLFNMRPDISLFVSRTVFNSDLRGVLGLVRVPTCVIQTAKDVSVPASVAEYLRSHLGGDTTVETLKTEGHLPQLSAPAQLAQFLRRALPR

As to `CC1=C[C@H](O/C=C2/C(=O)O[C@@H]3c4ccccc4C[C@H]23)OC1=O` [(+)-GR24], the Kd at PpKAI2L-K came to 107 µM; at AtD14, 22.8 ± 9.27 µM.
Consider `CC1=C[C@@H](O/C=C2/C(=O)O[C@H]3c4ccccc4C[C@@H]23)OC1=O` [(-)-GR24], for which the Kd at PpKAI2L-D worked out at 92 µM; on PpKAI2L-E it was 39 µM; at PpKAI2L-K it was 41 µM; at AtD14, 94 µM; on AtKAI2 it was 45 µM.

B1: PpKAI2L-H (Physcomitrium patens) (protein)
chain: MPSPLLSTHNVTVLGNRSDPVVVLGHGLGTDQSVWKYTVPSLVNQNFQVVLYDTMGAGSTETSDFNFKRYSSLQGHVDDLLAILDELEIENCVYVGHSMSGMIGVLASLERPDLFRKLILLSASPRYLNDSSYYGGFEQEDLDQLFSSMRSNFSAWVSGFATAAVGTDIHDEAVQEFSSTFISMRPDVALRTSQFVFQSDFRSILSEVTVPCHIVQSRKDIAVPIEVAEYLRCNLGGWTSVDILQTDGHLPQLSCPELVVPVLLHCIDS
The Km is the concentration of substrate that gives half-maximal velocity. One may read the kcat as the maximal rate divided by the concentration of active sites. For the molecule B1, in “purified protein”, the Km was 2381 ± 644 µM and the kcat came out at 34.02 ± 5.83 s⁻¹.

B2: AtKAI2 (Arabidopsis thaliana) (protein)
chain: MGVVEEAHNVKVIGSGEATIVLGHGFGTDQSVWKHLVPHLVDDYRVVLYDNMGAGTTNPDYFDFDRYSNLEGYSFDLIAILEDLKIESCIFVGHSVSAMIGVLASLNRPDLFSKIVMISASPRYVNDVDYQGGFEQEDLNQLFEAIRSNYKAWCLGFAPLAVGGDMDSIAVQEFSRTLFNMRPDIALSVGQTIFQSDMRQILPFVTVPCHILQSVKDLAVPVVVSEYLHANLGCESVVEVIPSDGHLPQLSSPDSVIPVILRHIRNDIAM
Consider B2, for which, in “purified protein”, the Km worked out at 610.1 ± 36.69 µM and the kcat was 2.647 ± 0.06558 s⁻¹.
